Results published in ChEMBL document CHEMBL2177012, “Inhibitor of ovarian cancer cells growth by virtual screening: a new thiazole derivative targeting human thymidylate synthase” (J Med Chem, 2012).
The source made the active and inactive calls. The rule behind the calls is not given here.

Experiments:
[1] = tested on: C13; assay: Inhibition of DHFR protein expression in cDDP-resistant human C13 cells at 40 uM incubated for 72 hrs by Western blotting; format: functional, cell-based
[2] = tested on: 2008; assay: Increase in ROS production in human 2008 cells at 40 uM incubated for 72 hrs by CM-H2DCFDA dye based fluorometry; format: functional
[3] = tested on: C13; assay: Increase in ROS production in cDDP-resistant human C13 cells at 40 uM incubated for 72 hrs by CM-H2DCFDA dye based fluorometry; format: functional, cell-based
[4] = molecular target: T1, Thymidylate synthase (Homo sapiens, UniProt P04818); assay: Inhibition of human thymidylate synthase expressed in Escherichia coli at 100 uM incubated for 1 hr by spectrophotometry
Target sequence in this assay (P04818 2-313 limits assumed): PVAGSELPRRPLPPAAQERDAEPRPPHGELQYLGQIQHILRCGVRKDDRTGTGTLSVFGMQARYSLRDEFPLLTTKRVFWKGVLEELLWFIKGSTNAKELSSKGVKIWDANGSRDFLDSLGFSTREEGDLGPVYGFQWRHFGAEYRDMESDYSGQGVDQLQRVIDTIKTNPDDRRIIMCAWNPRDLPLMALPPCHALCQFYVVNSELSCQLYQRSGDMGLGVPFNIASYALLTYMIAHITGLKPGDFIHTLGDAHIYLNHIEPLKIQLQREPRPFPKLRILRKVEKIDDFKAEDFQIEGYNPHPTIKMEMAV

[5] = tested on: C13; assay: Inhibition of DHFR protein expression in cDDP-resistant human C13 cells at 20 uM incubated for 72 hrs by Western blotting; format: functional, cell-based
[6] = Growth inhibition of cDDP-resistant human A2780/CP70 cells by crystal violet assay; format: functional, cell-based
[7] = tested on: 2008; assay: Effect on thymidylate synthase protein expression in human 2008 cells at 20 to 40 uM incubated for 72 hrs by Western blotting; format: functional, cell-based
[8] = tested on: A2780; assay: Growth inhibition of human A2780 cells by crystal violet assay; format: functional, cell-based
[9] = tested on: C13; assay: Increase in ROS production in cDDP-resistant human C13 cells at 20 uM incubated for 72 hrs by CM-H2DCFDA dye based fluorometry; format: functional, cell-based
[10] = tested on: 2008; assay: Growth inhibition of human 2008 cells by crystal violet assay; format: functional, cell-based
[11] = tested on: 2008; assay: Inhibition of DHFR protein expression in human 2008 cells at 20 uM incubated for 72 hrs by Western blotting; format: functional; details: Homo sapiens, 2008, 72 h
[12] = molecular target: T1, Thymidylate synthase; assay: Inhibition of human thymidylate synthase expressed in Escherichia coli incubated for 1 hr by spectrophotometry
Target sequence in this assay (P04818 whole entry): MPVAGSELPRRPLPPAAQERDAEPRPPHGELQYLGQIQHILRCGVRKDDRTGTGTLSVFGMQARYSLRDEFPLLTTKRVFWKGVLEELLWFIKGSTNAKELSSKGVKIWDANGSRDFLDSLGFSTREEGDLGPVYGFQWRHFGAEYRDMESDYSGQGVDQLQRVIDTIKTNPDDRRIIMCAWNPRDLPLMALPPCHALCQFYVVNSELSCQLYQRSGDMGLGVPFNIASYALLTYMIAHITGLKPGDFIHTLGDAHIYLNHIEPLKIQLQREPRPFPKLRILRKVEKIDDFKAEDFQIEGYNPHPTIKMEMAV

[13] = tested on: Vero; assay: Growth inhibition of african green monkey Vero cells by crystal violet assay; format: cell-based; details: Chlorocebus sabaeus
[14] = Growth inhibition of cDDP-resistant human C13 cells by crystal violet assay; format: functional, cell-based
[15] = tested on: C13; assay: Effect on thymidylate synthase protein expression in cDDP-resistant human C13 cells at 20 to 40 uM incubated for 72 hrs by Western blotting; format: functional, cell-based
[16] = tested on: 2008; assay: Inhibition of DHFR protein expression in human 2008 cells at 40 uM incubated for 72 hrs by Western blotting; format: functional; details: Homo sapiens, 2008, 72 h
[17] = tested on: 2008; assay: Increase in ROS production in human 2008 cells at 20 uM incubated for 72 hrs by CM-H2DCFDA dye based fluorometry; format: functional
[18] = molecular target: T1, Thymidylate synthase; assay: Mixed inhibition of human thymidylate synthase expressed in Escherichia coli incubated for 1 hr using varying mTHF and dUMP levels by spectrophotometry based Lineweaver-Burk method
Target sequence in this assay (P04818 2-313 limits assumed): as the sequence (P04818 2-313 limits assumed) above

[19] = molecular target: T1, Thymidylate synthase; assay: Inhibition of human thymidylate synthase expressed in Escherichia coli incubated for 1 hr using varying dUMP levels by spectrophotometry based Lineweaver-Burk method
Target sequence in this assay (P04818 whole entry): as the sequence (P04818 whole entry) above

[20] = molecular target: T1, Thymidylate synthase; assay: Inhibition of human thymidylate synthase expressed in Escherichia coli incubated for 1 hr assessed as reduction in mTHF Vmax value by spectrophotometry based Lineweaver-Burk method relative to untreated control
Target sequence in this assay (P04818 2-313 limits assumed): as the sequence (P04818 2-313 limits assumed) above

[21] = molecular target: T1, Thymidylate synthase; assay: Inhibition of human thymidylate synthase expressed in Escherichia coli at 25 uM incubated for 1 hr by spectrophotometry
Target sequence in this assay (P04818 2-313 limits assumed): as above

[22] = molecular target: T1, Thymidylate synthase; assay: Inhibition of human thymidylate synthase expressed in Escherichia coli at 50 uM incubated for 1 hr by spectrophotometry
Target sequence in this assay (P04818 2-313 limits assumed): as above

SMILES | inhibition [4] | IC50 [6] | IC50 [8] | IC50 [10] | IC50 [12] | IC50 [13] | IC50 [14] | further results
O=C(NC(=O)c1cn(CCNCCO)c(=O)[nH]c1=O)OCc1ccccc1 | 36% | 16.5 µM | 6.6 µM | 24.1 µM | 619 µM | > 80 µM | 56.8 µM | inhibition [1]: inactive; fold change (FC) [2]: 1.5; Activity [3]: inactive; inhibition [5]: inactive; Activity [7]: inactive; Activity [9]: inactive; inhibition at 20 µM [11]: 40%; Activity [15]: inactive; inhibition at 40 µM [16]: 60%; fold change (FC) [17]: 1.5
Cc1ccc(C(=O)C2=C(O)C(=O)N(CCN(C)C)C2c2ccc(OCC(N)=O)cc2)o1 (configuration not stated) | 16% | 39.5 µM | 16.4 µM | 37.4 µM | – | > 80 µM | > 80 µM | –
CCN(CC)CCOC(=O)c1ccc(NS(=O)(=O)c2ccc(C(C)(C)C)cc2)cc1 | 15% | – | – | > 60 µM | – | – | > 60 µM | –
O=C(CC1S/C(=N\N=C\c2ccccc2O)N=C1O)Nc1cccc(C(F)(F)F)c1 (configuration not stated) | – | 36.4 µM | 19.4 µM | 21.1 µM | 90 µM | 30.3 µM | 28.3 µM | inhibition [18]: Active; Ki [19]: 2.5 µM; inhibition [20]: 60%; inhibition [21]: 33%
CCCCCn1c(=O)c(C(=O)Nc2ccc(N)cc2)c(O)c2ccccc21 | – | 12.3 µM | 4.9 µM | 8.8 µM | 71 µM | 10.2 µM | 9.2 µM | inhibition [21]: 41%
COc1ccc(C)cc1NC(=O)C(=O)N/N=C/c1ccc(OCC(N)=O)cc1 | – | – | – | > 60 µM | 112 µM | – | > 60 µM | inhibition [22]: 35%
O=c1[nH]cc(F)c(=O)[nH]1 [FLUOROURACIL] | – | 12.3 µM | 5.1 µM | 4.2 µM | – | 4.5 µM | 8.5 µM | –
